What all share (assay type): cell-based, human
The test system of assay [1] is K-562. The assay can be described thus: Proliferation inhibition, CellTiter-Glo, K-562. Particulars: Homo sapiens, K562, 96 h; K-562 cells, IC50 (4 days), CellTiter-Glo; read-out: K-562 IC50. The procedure, abridged:
(§1)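 About 10,000 cells per well in RPMI-1640 with 10% FBS. Compounds added 2 h after seeding at eight concentrations in duplicate (0.2% DMSO as 100% proliferation), then incubated ~96 h at 37° C, 5% CO2. ATP measured by CellTiter-Glo luminescence; IC50 from four-parameter logistic fit.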
In general terms: ATP-based viability assays read luminescence as a measure of living cells.

Assay [2] deals with MV-4-11. The assay can be described thus: Proliferation inhibition, CellTiter-Glo, MV-4-11. The note with it: Homo sapiens, MV4-11, 96 h; MV-4:11 cells, IC50 (4 days), CellTiter-Glo; read-out: MV-4:11 IC50. The procedure, abridged:
as §1

Assay [3] relates to MOLM-13. The assay can be described thus: Proliferation inhibition, CellTiter-Glo, MOLM-13. The note with it: Homo sapiens, 96 h; MOLM-13 cells, IC50 (4 days), CellTiter-Glo; read-out: MOLM-13 IC50. In outline: as §1

For the molecule `CCc1nc(C(N)=O)c(Nc2ccnc(CCNC(=O)CN(C)C(=O)/C=C/CN3CCC3)c2)nc1CC(C)C` [Compound 604, (E)-3-((2-(2-(2-(4-(azetidin-1-yl)-N-methylbut-2-enamido)acetamido)ethyl)pyridin-4-yl)amino)-6-ethyl-5-isobutylpyrazine-2-carboxamide], the 50% inhibitory concentration (IC50) in assay [1] is over 500 nM; in assay [2], under 1 nM; in assay [3], 1 to 10 nM.
Taken in the same sequence, the figures for `CCc1nc(Nc2cccc(CCNC(=O)[C@H](C)N(C)C(=O)/C=C/CN(C)C)c2)c(C(N)=O)nc1C` [Compound 255, 3-[3-[2-[[(2S)-2-[[(E)-4-(dimethylamino)but-2-enoyl]-methyl-amino]propanoyl]amino]ethyl]anilino]-5-ethyl-6-methyl-pyrazine-2-carboxamide] were over 500 nM, 1 to 10 nM and 10 to 100 nM.
Taken in the same sequence, the figures for `CCc1nc(C(N)=O)c(Nc2cccc(CCNC(=O)[C@H](C)N(C)C(=O)/C=C/CN3CC(F)C3)c2)nc1C` [Compound 240, 6-ethyl-3-[3-[2-[[(2S)-2-[[(E)-4-(3-fluoroazetidin-1-yl)but-2-enoyl]-methyl-amino]propanoyl]amino]ethyl]anilino]-5-methyl-pyrazine-2-carboxamide] were over 500 nM, 10 to 100 nM and over 500 nM.
Taken in the same sequence, the figures for `CCc1nc(C(N)=O)c(Nc2cccc([C@H](C)CNC(=O)CN(C)C(=O)/C=C/CN(C)C)c2)nc1C` [Compound 324, (S,E)-3-((3-(1-(2-(4-(dimethylamino)-N-methylbut-2-enamido)acetamido)propan-2-yl)phenyl)amino)-6-ethyl-5-methylpyrazine-2-carboxamide] were over 500 nM, 10 to 100 nM and 100 to 500 nM.
Turning to `C=C(F)C(=O)N(C)[C@@H](C)C(=O)NCCc1cccc(Nc2nc(C3CC3)c(CC)nc2C(N)=O)c1` [Compound 215, 5-cyclopropyl-6-ethyl-3-[3-[2-[[(2S)-2-[2-fluoroprop-2-enoyl(methyl)amino]propanoyl]amino]ethyl]anilino]pyrazine-2-carboxamide], the half-inhibitory concentration (IC50) in assay [1], in assay [2] and in assay [3] was over 500 nM in each case.
For the molecule `CCc1nc(C(N)=O)c(Nc2cccc(CCNC(=O)CN(C)C(=O)/C=C/CN(C)C)c2)nc1C` [Compound 226, (E)-3-((3-(2-(2-(4-(dimethylamino)-N-methylbut-2-enamido)acetamido)ethyl)phenyl)amino)-6-ethyl-5-methylpyrazine-2-carboxamide], the IC50 in assay [1] is over 500 nM; in assay [2], under 1 nM; in assay [3], 1 to 10 nM.
Taken in the same sequence, the figures for `C=CC(=O)N(C)[C@@H](C)C(=O)NCCc1cccc(Nc2nc(C)c(C)nc2C(N)=O)c1` [Compound 238, 5,6-dimethyl-3-[3-[2-[[(2S)-2-[methyl(prop-2-enoyl)amino]propanoyl]amino]ethyl]anilino]pyrazine-2-carboxamide] were over 500 nM, over 500 nM and over 500 nM.
Taken in the same sequence, the figures for `CCc1nc(C(N)=O)c(Nc2cc(CCNC(=O)[C@H](C)N(C)C(=O)/C=C/CN(C)C)ccn2)nc1C1CC1` [Compound 304, 5-cyclopropyl-3-[[4-[2-[[(2S)-2-[[(E)-4-(dimethylamino)but-2-enoyl]-methyl-amino]propanoyl]amino]ethyl]-2-pyridyl]amino]-6-ethyl-pyrazine-2-carboxamide] were over 500 nM, 100 to 500 nM and 100 to 500 nM.
Taken in the same sequence, the figures for `Cc1cc(C(N)=O)c(Nc2cccc(CCNC(=O)[C@H](C)N(C)C(=O)/C=C/CN(C)C)c2)nc1C1CC1` [Compound 319, 6-cyclopropyl-2-[3-[2-[[(2S)-2-[[(E)-4-(dimethylamino)but-2-enoyl]-methyl-amino]propanoyl]amino]ethyl]anilino]-5-methyl-pyridine-3-carboxamide] were over 500 nM, 10 to 100 nM and 10 to 100 nM.
On to `[2H]C([2H])([2H])N(C/C=C/C(=O)N(C)[C@@H](C)C(=O)NCCc1cccc(Nc2nc(N(C)CC)c(CC)nc2C(N)=O)c1)C([2H])([2H])[2H]` [Compound 246, (S,E)-3-((3-(2-(2-(4-(bis(methyl-d3)amino)-N-methylbut-2-enamido)propanamido)ethyl)phenyl)amino)-6-ethyl-5-(ethyl(methyl)amino)pyrazine-2-carboxamide], for which the 50% inhibitory concentration (IC50) is over 500 nM in assay [1], under 1 nM in assay [2] and under 1 nM in assay [3].
For the molecule `Cc1nc(Nc2cccc(CCNC(=O)CN(C)C(=O)/C=C/CN(C)C)c2)c(C(N)=O)nc1C` [Compound 301, 3-[3-[2-[[2-[[(E)-4-(dimethylamino)but-2-enoyl]-methyl-amino]acetyl]amino]ethyl]anilino]-5,6-dimethyl-pyrazine-2-carboxamide], the IC50 in assay [1] is over 500 nM; in assay [2], 10 to 100 nM; in assay [3], 10 to 100 nM.

Broadly, the IC50 is the concentration that gives 50% inhibition.

Values taken from patent publication US20240262795A1, “PYRAZINE COMPOUNDS AS INHIBITORS OF FLT3” (Biomea Fusion, Inc., priority 2021, published 2024).
